Experimental data: patent publication US20220016277A1, “MACROCYCLIC COMPLEXES OF RADIONUCLIDES AND THEIR USE IN RADIOTHERAPY OF CANCER” (Cornell University, priority 2018, published 2022)

Assay: Organ distribution of ^225Ac complexes following intravenous injection in mice
Assay type: in vivo, C57BL/6 mice
Protocol: In Vivo Biodistribution of ^225Ac Complexes of Macropa and DOTA. All experiments were approved by the Institutional Animal Care Committee (IACC) of the University of British Columbia and were performed in accordance with the Canadian Council on Animal Care Guidelines. A total of 9 female C57BL/6 mice (6-8 weeks old, 20-25 g) were used for the biodistribution study of each radiometal complex, n=3 for each time point.
Macropa (100 μL of a 1 mg/mL solution in NH4OAc) was diluted with 387 μL of NH4OAc (1 M, pH 7), and an aliquot (203 μL) of ^225Ac(NO3)3 (˜157 kBq) was then added; the pH of this solution was adjusted to 6.5-7 by the addition of 1 M NaOH (210 μL, trace metal grade). After 5 min at ambient temperature, the reaction solution was analyzed by TLC (0.4 M pH 4 sodium citrate as the eluent), which confirmed >95% radiochemical yield. The reaction was allowed to proceed overnight, and the radiochemical yield was again confirmed to be >95% the following morning. At this time, mice were anesthetized by 2% isoflurane, and approximately 100 μL (10-15 kBq) of the [^225Ac(macropa)]^+ complex were injected into the tail vein of each mouse. After injection, mice were allowed to recover and roam freely in their cages, and were euthanized by CO2 inhalation at 15 min, 1 h, or 5 h (n=3 at each time point) post-injection. Blood was collected by cardiac puncture and placed into an appropriate test tube for scintillation counting. Tissues collected included heart, liver, kidneys, lungs, small intestine, large intestine, brain, bladder, spleen, stomach, pancreas, bone, thyroid, tail, urine, and feces. Tissues were weighed and then counted with a calibrated gamma counter (Packard, Cobra II model 5002) using three energy windows: 60-120 keV (window A), 180-260 keV (window B), and 400-480 keV (window C). Counting was performed both immediately after sacrifice and after 7 days; counts were decay corrected from the time of injection and then converted to the percentage of injected dose (% ID) per gram of tissue (% ID/g). […]
The biodistribution studies of [^225Ac(DOTA)]^− and ^225Ac(NO3)3 were carried out as described above for [^225Ac(macropa)]^+, with the following modifications. [^225Ac(DOTA)^− was prepared by adding ^225Ac(NO3)3 (338 μL, 1.1 MBq) to a solution of DOTA (100 μg, 20 mg/mL in H2O) in NH4OAc (467 μL, 0.15 M, pH 7). The pH of the solution was adjusted to 7 using NH4OAc (150 μL, 1 M, pH 7) and the solution was heated at 85° C. for 45 min. RCY >99% was confirmed by TLC as described above. [^225Ac(DOTA)]^− was diluted with saline to a final concentration of 0.05 MBq/100 μL, and 100 μL were injected into each mouse. ^225Ac(NO3)3 (˜58 μL, 0.4 MBq) was diluted and injected in the same manner as [^225Ac(DOTA)]^−. One mouse that was to be euthanized at the 5 h time point in the [^225Ac(DOTA)]^− study died shortly after injection. In the same manner, one mouse that was to be euthanized at the 1 h time point in the ^225Ac(NO3)3 study died.
The in vivo stability [^225Ac(macropa)]^+ was examined by comparing its biodistribution to those of ^225Ac(NO3)3 and [^225Ac(DOTA)]^−. C57BL/6 mice were injected via tail vein with 10-50 kBq of each radiometal complex and were sacrificed after 15 min, 1 h, or 5 h. The amount of ^225Ac retained in each organ was quantified by gamma counting and reported as the percent of injected dose per gram of tissue (% ID/g). The results of these studies are compiled in Tables 1-3. Inadequate stability of an ^225Ac complex leading to the loss of radioisotope in vivo is manifested by the accumulation of ^225Ac in the liver, spleen, and bone of mice.^[11,12,32] […] The biodistribution profile of [^225Ac(macropa)]^+ (FIG. 3B) differs markedly from that of ^225Ac(NO3)3. […] Its biodistribution profile was similar to that of [^225Ac(DOTA)]^− (FIG. 3C), which has been previously shown to retain ^225Ac^3+ in vivo.^[7]

[1] = 15 min post i.v. injection, energy window A (60-120 keV)
[2] = 15 min post i.v. injection, energy window B (180-260 keV)
[3] = 15 min post i.v. injection, energy window C (400-480 keV)
[4] = 1 h post i.v. injection, energy window A (60-120 keV)
[5] = 1 h post i.v. injection, energy window B (180-260 keV)
[6] = 1 h post i.v. injection, energy window C (400-480 keV)
[7] = 5 h post i.v. injection, energy window A (60-120 keV)
[8] = 5 h post i.v. injection, energy window B (180-260 keV)

O=C([O-])CN1CCN(CC(=O)[O-])CCN(CC(=O)[O-])CCN(CC(=O)[O-])CC1.[225Ac+3] [[^225Ac(DOTA)]^−]
Organ distribution: bladder [1]: 48.2703 % ID/g | Organ distribution: blood [1]: 5.2881 % ID/g | Organ distribution: bone (femur + joint) [1]: 2.6298 % ID/g | Organ distribution: brain [1]: 0.2655 % ID/g | Organ distribution: feces [1]: 6.2730 % ID/g | Organ distribution: heart [1]: 2.3335 % ID/g | Organ distribution: kidneys [1]: 27.6566 % ID/g | Organ distribution: large intestines [1]: 2.3348 % ID/g | Organ distribution: liver [1]: 2.2520 % ID/g | Organ distribution: lungs [1]: 5.7556 % ID/g | Organ distribution: pancreas [1]: 1.5090 % ID/g | Organ distribution: small intestines [1]: 2.6370 % ID/g | Organ distribution: spleen [1]: 2.5905 % ID/g | Organ distribution: stomach [1]: 2.7440 % ID/g | Organ distribution: tail [1]: 8.8606 % ID/g | Organ distribution: thyroids [1]: −5.7725 % ID/g | Organ distribution: urine [1]: 1467.9186 % ID/g | Organ distribution: bladder [2]: 54.4696 % ID/g | Organ distribution: blood [2]: 5.6357 % ID/g | Organ distribution: bone (femur + joint) [2]: 3.0357 % ID/g | Organ distribution: brain [2]: 0.2735 % ID/g | Organ distribution: feces [2]: 1.0222 % ID/g | Organ distribution: heart [2]: 2.7276 % ID/g | Organ distribution: kidneys [2]: 28.0858 % ID/g | Organ distribution: large intestines [2]: 2.5365 % ID/g | Organ distribution: liver [2]: 2.1817 % ID/g | Organ distribution: lungs [2]: 6.0147 % ID/g | Organ distribution: pancreas [2]: 1.4929 % ID/g | Organ distribution: small intestines [2]: 2.5009 % ID/g | Organ distribution: spleen [2]: 2.9076 % ID/g | Organ distribution: stomach [2]: 2.7311 % ID/g | Organ distribution: tail [2]: 9.4746 % ID/g | Organ distribution: thyroids [2]: 1.6601 % ID/g | Organ distribution: urine [2]: 1635.4394 % ID/g | Organ distribution: bladder [3]: 76.0987 % ID/g | Organ distribution: blood [3]: 7.2941 % ID/g | Organ distribution: bone (femur + joint) [3]: 4.4224 % ID/g | Organ distribution: brain [3]: 0.1588 % ID/g | Organ distribution: feces [3]: 1.5693 % ID/g | Organ distribution: heart [3]: 2.5579 % ID/g | Organ distribution: kidneys [3]: 40.4489 % ID/g | Organ distribution: large intestines [3]: 3.8419 % ID/g | Organ distribution: liver [3]: 2.9046 % ID/g | Organ distribution: lungs [3]: 7.3872 % ID/g | Organ distribution: pancreas [3]: 1.0290 % ID/g | Organ distribution: small intestines [3]: 3.8916 % ID/g | Organ distribution: spleen [3]: 1.5598 % ID/g | Organ distribution: stomach [3]: 3.2425 % ID/g | Organ distribution: tail [3]: 13.4731 % ID/g | Organ distribution: thyroids [3]: −109.5394 % ID/g | Organ distribution: urine [3]: 2691.0615 % ID/g | Organ distribution: bladder [4]: 4.7351 % ID/g | Organ distribution: blood [4]: 0.1144 % ID/g | Organ distribution: bone (femur + joint) [4]: 0.4487 % ID/g | Organ distribution: brain [4]: 0.0224 % ID/g | Organ distribution: feces [4]: 0.2035 % ID/g | Organ distribution: heart [4]: 0.1012 % ID/g | Organ distribution: kidneys [4]: 1.4020 % ID/g | Organ distribution: large intestines [4]: 0.1229 % ID/g | Organ distribution: liver [4]: 0.2715 % ID/g | Organ distribution: lungs [4]: 0.1555 % ID/g | Organ distribution: pancreas [4]: 0.0743 % ID/g | Organ distribution: small intestines [4]: 1.7207 % ID/g | Organ distribution: spleen [4]: 0.0938 % ID/g | Organ distribution: stomach [4]: 0.1367 % ID/g | Organ distribution: tail [4]: 0.8091 % ID/g | Organ distribution: thyroids [4]: 2.3564 % ID/g | Organ distribution: urine [4]: 158.6102 % ID/g | Organ distribution: bladder [5]: 4.7141 % ID/g | Organ distribution: blood [5]: 0.1127 % ID/g | Organ distribution: bone (femur + joint) [5]: 0.4126 % ID/g | Organ distribution: brain [5]: 0.0248 % ID/g | Organ distribution: feces [5]: 0.2349 % ID/g | Organ distribution: heart [5]: 0.1378 % ID/g | Organ distribution: kidneys [5]: 1.2560 % ID/g | Organ distribution: large intestines [5]: 0.0813 % ID/g | Organ distribution: liver [5]: 0.2672 % ID/g | Organ distribution: lungs [5]: 0.1946 % ID/g | Organ distribution: pancreas [5]: 0.0746 % ID/g | Organ distribution: small intestines [5]: 1.8809 % ID/g | Organ distribution: spleen [5]: 0.0825 % ID/g | Organ distribution: stomach [5]: 0.1379 % ID/g | Organ distribution: tail [5]: 0.8973 % ID/g | Organ distribution: thyroids [5]: 2.6514 % ID/g | Organ distribution: urine [5]: 159.1628 % ID/g | Organ distribution: bladder [6]: 6.9149 % ID/g | Organ distribution: blood [6]: 0.1102 % ID/g | Organ distribution: bone (femur + joint) [6]: 0.5654 % ID/g | Organ distribution: brain [6]: 0.0380 % ID/g | Organ distribution: feces [6]: 0.4091 % ID/g | Organ distribution: heart [6]: 0.2857 % ID/g | Organ distribution: kidneys [6]: 1.4787 % ID/g | Organ distribution: large intestines [6]: 0.1381 % ID/g | Organ distribution: liver [6]: 0.2841 % ID/g | Organ distribution: lungs [6]: 0.2551 % ID/g | Organ distribution: pancreas [6]: 0.1730 % ID/g | Organ distribution: small intestines [6]: 2.0201 % ID/g | Organ distribution: spleen [6]: 0.2228 % ID/g | Organ distribution: stomach [6]: 0.1720 % ID/g | Organ distribution: tail [6]: 1.0280 % ID/g | Organ distribution: thyroids [6]: 3.5247 % ID/g | Organ distribution: urine [6]: 177.6788 % ID/g | Organ distribution: bladder [7]: 0.3551 % ID/g | Organ distribution: blood [7]: 0.0140 % ID/g | Organ distribution: bone (femur + joint) [7]: 0.2063 % ID/g | Organ distribution: brain [7]: 0.0213 % ID/g | Organ distribution: feces [7]: 5.5318 % ID/g | Organ distribution: heart [7]: 0.0664 % ID/g | Organ distribution: kidneys [7]: 0.6172 % ID/g | Organ distribution: large intestines [7]: 0.2026 % ID/g | Organ distribution: liver [7]: 0.1010 % ID/g | Organ distribution: lungs [7]: 0.0390 % ID/g | Organ distribution: pancreas [7]: 0.0677 % ID/g | Organ distribution: small intestines [7]: 0.0967 % ID/g | Organ distribution: spleen [7]: 0.1380 % ID/g | Organ distribution: stomach [7]: 0.0852 % ID/g | Organ distribution: tail [7]: 0.3057 % ID/g | Organ distribution: thyroids [7]: 3.6425 % ID/g | Organ distribution: urine [7]: 1.1612 % ID/g | Organ distribution: bladder [8]: 0.7521 % ID/g | Organ distribution: blood [8]: 0.0292 % ID/g | Organ distribution: bone (femur + joint) [8]: 0.1478 % ID/g | Organ distribution: brain [8]: 0.0513 % ID/g | Organ distribution: feces [8]: 3.3534 % ID/g | Organ distribution: heart [8]: 0.0879 % ID/g | Organ distribution: kidneys [8]: 0.6718 % ID/g | Organ distribution: large intestines [8]: 0.2527 % ID/g | Organ distribution: liver [8]: 0.2712 % ID/g | Organ distribution: lungs [8]: 0.1289 % ID/g | Organ distribution: pancreas [8]: 0.1266 % ID/g | Organ distribution: small intestines [8]: 0.2065 % ID/g | Organ distribution: spleen [8]: 0.0834 % ID/g | Organ distribution: stomach [8]: 0.1789 % ID/g | Organ distribution: tail [8]: 0.1634 % ID/g | Organ distribution: thyroids [8]: 16.2357 % ID/g | Organ distribution: urine [8]: 3.6967 % ID/g
